Reference: ChEMBL document CHEMBL1201862, “PubChem BioAssay data set” (2004)
“And” between values parts separate entries of the source, which are not always exact repeats. Identical values can stand only once.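 Values below derive from 48-hour exposures of cells grown in 96-well plates, with endpoints linearly interpolated between the two concentrations bracketing the appropriate inhibition level. GI50 = concentration required for 50% inhibition of growth.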 The source made the active and inactive calls. Cut-off read from the data, not from the text of the source: active = GI50 up to about 1.1 µM and inactive = higher.

What was measured:
Test in all cases: growth of human tumour cells (NCI), 48 h
HCC 2998 = system: HCC 2998
OVCAR-3 = system: OVCAR-3
M19-MEL = system: M19-MEL
A498 = system: A498
SK-MEL-2 = system: SK-MEL-2
LXFL 529 = system: LXFL 529
TK-10 = system: TK-10
SF-295 = system: SF-295
SK-MEL-28 = system: SK-MEL-28
IGROV-1 = system: IGROV-1
NCI-H522 = system: NCI-H522
EKVX = system: EKVX
HL-60 = system: HL-60
SNB-78 = system: SNB-78
CAKI-1 = system: CAKI-1
SK-OV-3 = system: SK-OV-3
NCI-H226 = system: NCI-H226
RXF 393 = system: RXF 393
ACHN = system: ACHN
MOLT-4 = system: MOLT-4
OVCAR-5 = system: OVCAR-5
XF498 = system: XF498
HCT-116 = system: HCT-116
DMS-273 = system: DMS-273
RPMI-8226 = system: RPMI-8226
SW-620 = system: SW-620
UACC-257 = system: UACC-257
NCI-H460 = system: NCI-H460
OVCAR-4 = system: OVCAR-4
DMS-114 = system: DMS-114
HT-29 = system: HT-29

Measured: GI50

CC(=O)OCC1OC(n2c(-c3ccccc3)cc(-c3ccco3)c(C#N)c2=O)C(OC(C)=O)C(OC(C)=O)C1OC(C)=O (stereo unspecified)
inactive: HCC 2998 > 100 µM and 52.4 µM | OVCAR-3 33.3 µM and > 31.6 µM | M19-MEL 54.6 µM and 30.9 µM | A498 > 100 µM and 68.1 µM | SK-MEL-2 14.6 µM and 28.1 µM | LXFL 529 12.7 µM and > 10 µM | TK-10 > 31.6 µM and 27.2 µM | SF-295 39.9 µM and 57.5 µM | SK-MEL-28 22.3 µM and 39.3 µM | IGROV-1 > 31.6 µM and 36.8 µM | NCI-H522 29.5 µM and 20.7 µM | EKVX > 100 µM | HL-60 3.84 µM | SNB-78 45.7 µM and 25.9 µM | CAKI-1 52.5 µM | SK-OV-3 > 100 µM and 98.6 µM | NCI-H226 > 100 µM | RXF 393 > 32.1 µM and 19.3 µM | ACHN 76.7 µM and 49.7 µM | MOLT-4 > 22.8 µM and 14.8 µM | OVCAR-5 > 100 µM | XF498 16.2 µM | HCT-116 7.46 µM and 5.86 µM | DMS-273 25.8 µM and 36.3 µM | RPMI-8226 8.38 µM | SW-620 > 31.6 µM and 49.3 µM | UACC-257 > 89.1 µM and 75.7 µM | NCI-H460 57.4 µM | OVCAR-4 > 56.6 µM and 74.3 µM | DMS-114 28.8 µM and 30.5 µM | HT-29 > 100 µM
